The test deals with HT-29 cells. The test can be described thus: Necroptosis assay (TNF-α/Smac mimetic/z-VAD, TSZ-induced) in HT-29 cells. The class given is cell-based, human. In short, it runs like this:
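HT-29 cells were challenged with 20 ng/ml TNF-α, 100 nM Smac mimetic and 20 mM z-VAD while compound was added at the same time (library screen at 10 mM). After 24 h, viability was read as ATP luminescence (CellTiter-Glo) and normalized to DMSO-treated cells; values are means ± SD of duplicates.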

[1] abbreviates: Homo sapiens, Series 1 (Table 1) compounds 1-146, HT-29 cells, TNF-α/Smac mimetic/z-VAD, 24 hrs, cell viability by ATP level, read-out: Series 1 compound necroptosis activity.
Where [2] appears, read: Homo sapiens, Series 2 (Table 2) compounds, HT-29 necroptosis assay, read-out: Series 2 compound necroptosis activity.
Where [3] appears, read: Series 1 (Table 1) compounds 1-146, HT-29 cells, TNF-α/Smac mimetic/z-VAD, 24 hrs, cell viability by ATP level, read-out: Series 1 compound necroptosis activity.

Read-outs that look alike come from different tables or passages of the source.

`CCS(=O)(=O)c1nc2c(c(=O)n(C)c(=O)n2C)n1C` [Compound 7, 8-(ethylsulfonyl)-1,3,7-trimethyl-1H-purine-2,6(3H,7H)-dione]: the EC50 under setting [1] lay in the range of 1000 to 100000 nM.
Regarding `COCCOCCNc1cccc(C#CCn2c(=O)n(C)c(=O)c3c2nc(S(C)(=O)=O)n3C)c1` [Compound 12], the EC50 under setting [2] was in the range of 1 to 100 nM.
In the case of `Cn1c(=O)c2c(nc(S(=O)(=O)CC3CC3)n2C)n(Cc2cccc(Br)c2)c1=O` [Compound 140, 3-(3-bromobenzyl)-8-((cyclopropylmethyl)sulfonyl)-1,7-dimethyl-1H-purine-2,6(3H,7H)-dione], under setting [1], the EC50 fell in the range of 1000 to 100000 nM.
For the compound `Cn1c(=O)c2c(nc(S(=O)(=O)CC3CC3)n2C)n(CC#Cc2ccnc(NC(=O)CN3CCOCC3)c2)c1=O` [Compound 32], the EC50 under setting [2] fell in the range of 1 to 100 nM.
As for `Cn1c(=O)c2c(nc(S(=O)(=O)Cc3ccccc3C#N)n2C)n(C)c1=O` [Compound 42, 2-((1,3,7-trimethyl-2,6-dioxo-2,3,6,7-tetrahydro-1H-purin-8-ylsulfonyl)methyl)benzonitrile], the EC50 under setting [3] was in the range of 1000 to 1e+06 nM.
In the case of `C#CCn1c(=O)n(C)c(=O)c2c1nc(S(C)(=O)=O)n2C` [Compound 12], the EC50 (Homo sapiens, HT-29, 24 h, read-out: EC50 (nM), potency in TSZ-induced necroptosis assays in HT-29 cells) worked out at 152 ± 23 nM.
Regarding `Cn1c(=O)c2c(nc(S(=O)(=O)CC3CC3)n2C)n(Cc2ccccc2F)c1=O` [Compound 133, 8-((cyclopropylmethyl)sulfonyl)-3-(2-fluorobenzyl)-1,7-dimethyl-1H-purine-2,6(3H,7H)-dione], under setting [1], the EC50 is 1000 to 100000 nM.
On the same count and under the same terms, with `Cn1c(=O)c2c(nc(S(C)(=O)=O)n2C)n(C)c1=O` [Compound 4, 1,3,7-trimethyl-8-(methylsulfonyl)-1H-purine-2,6(3H,7H)-dione] the figure was 1000 to 10000 nM.
On to `Cn1c(=O)c2c(nc(S(=O)(=O)Cc3cccnc3)n2C)n(C)c1=O` [Compound 50, 1,3,7-trimethyl-8-(pyridin-3-ylmethylsulfonyl)-1H-purine-2,6(3H,7H)-dione], for which the EC50 under setting [3] was in the range of 1000 to 1e+06 nM.
With `Cn1c(=O)c2c(nc(S(=O)(=O)Cc3cc(Cl)ccc3Cl)n2C)n(C)c1=O` [Compound 55, 8-(2,5-dichlorobenzylsulfonyl)-1,3,7-trimethyl-1H-purine-2,6(3H,7H)-dione], the EC50 under setting [1] was in the range of 1000 to 100000 nM.
`Cn1c(=O)c2c(nc(S(=O)(=O)Cc3cccc(Cl)c3Cl)n2C)n(C)c1=O` [Compound 54, 8-(2,3-dichlorobenzylsulfonyl)-1,3,7-trimethyl-1H-purine-2,6(3H,7H)-dione]: the EC50 under setting [3] lay in the range of 1000 to 1e+06 nM.
In the case of `CCCOc1ccc(OC)c(CS(=O)(=O)c2nc3c(c(=O)n(C)c(=O)n3C)n2C)c1` [Compound 68, 8-(2-methoxy-5-propoxybenzylsulfonyl)-1,3,7-trimethyl-1H-purine-2,6(3H,7H)-dione], the EC50 under setting [3] lay within 1000 to 1e+06 nM.
Still for that read-out and setting: the figure for `Cn1c(=O)c2c(nc(S(=O)(=O)Cc3cccc(C(N)=O)c3)n2C)n(C)c1=O` [Compound 46, 3-((1,3,7-trimethyl-2,6-dioxo-2,3,6,7-tetrahydro-1H-purin-8-ylsulfonyl)methyl)benzamide] is 1000 to 1e+06 nM.
The same measure, in the same setting: with `Cn1c(S(C)(=O)=O)nc2c1c(=O)n(Cc1ccccc1)c(=O)n2C` [Compound 93, 1-benzyl-3,7-dimethyl-8-(methylsulfonyl)-1H-purine-2,6(3H,7H)-dione] the figure was 1000 to 1e+06 nM.
With `CCn1c(=O)n(C)c(=O)c2c1nc(S(C)(=O)=O)n2C` [Compound 100, 3-ethyl-1,7-dimethyl-8-(methylsulfonyl)-1H-purine-2,6(3H,7H)-dione], the EC50 under setting [1] fell in the range of 1000 to 100000 nM.
As to `Cn1c(=O)c2c(nc(S(C)(=O)=O)n2C)n(CC#Cc2ccnc(N)n2)c1=O` [Compound 24], the EC50 under setting [2] lay within 1 to 100 nM.
Consider `CCCS(=O)(=O)c1nc2c(c(=O)n(C)c(=O)n2C)n1CC` [Compound 80, 7-ethyl-1,3-dimethyl-8-(propylsulfonyl)-1H-purine-2,6(3H,7H)-dione], for which, under setting [3], the EC50 lay in the range of 1000 to 1e+06 nM.

These data come from patent US11666577B2 (National Institute of Biological Sciences, Beijing, priority 2018, dated 2023).
